Results reported in the NIST ThermoML archive (doi:10.1021/je800783a).

Assay: xn = mol fraction of the nth substance listed
Conditions: 101 kPa, Liquid, Vibrating tube method

CCCn1cc[n+](C)c1.N[C@@H](CCC(=O)O)C(=O)[O-] + O
mass density [kg/m3]
Conditions | 313.15 K | 318.15 K | 323.15 K | 328.15 K | 333.15 K | 338.15 K
x1 = 0.039 | 1075.97 | 1073.22 | 1070.37 | 1067.43 | 1064.43 | 1061.36
x1 = 0.0455 | 1085.27 | 1082.41 | 1079.46 | 1076.44 | 1073.32 | 1070.11
x1 = 0.0497 | 1091.07 | 1088.19 | 1085.24 | 1082.22 | 1079.13 | 1075.98
x1 = 0.0683 | 1111.85 | 1108.8 | 1105.7 | 1102.55 | 1099.36 | 1096.1
x1 = 0.0783 | 1121.25 | 1118.14 | 1114.98 | 1111.78 | 1108.54 | 1105.26
x1 = 0.0894 | 1129.5 | 1126.34 | 1123.14 | 1119.9 | 1116.63 | 1113.31
x1 = 0.0975 | 1134.91 | 1131.71 | 1128.49 | 1125.24 | 1121.94 | 1118.6
x1 = 0.1235 | 1150.57 | 1147.32 | 1144.03 | 1140.73 | 1137.4 | 1134.05
x1 = 0.1451 | 1159.24 | 1155.99 | 1152.7 | 1149.4 | 1146.06 | 1142.71
x1 = 0.1925 | 1172.52 | 1169.27 | 1166 | 1162.68 | 1159.35 | 1155.98
x1 = 0.239 | 1181.78 | 1178.48 | 1175.27 | 1172 | 1168.59 | 1165.3
x1 = 0.2888 | 1188.1 | 1184.82 | 1181.51 | 1178.21 | 1174.99 | 1171.72
x1 = 0.3294 | 1192.09 | 1188.84 | 1185.58 | 1182.29 | 1178.98 | 1175.77
x1 = 0.3767 | 1195.42 | 1192.17 | 1188.94 | 1185.67 | 1182.34 | 1179.04
x1 = 0.4265 | 1199.74 | 1196.17 | 1192.88 | 1189.64 | 1186.35 | 1183.09
x1 = 0.4713 | 1200.57 | 1197.03 | 1193.63 | 1190.41 | 1187.18 | 1183.94
x1 = 0.5112 | 1201.78 | 1198.21 | 1194.79 | 1191.55 | 1188.22 | 1184.93
x1 = 0.5427 | 1203.93 | 1200.61 | 1197.22 | 1193.66 | 1190.35 | 1187.07
